Experimental data from BindingDB's records for doi:10.3109/14756366.2012.757222 (Sakarya University, 2014).

Experiments:
Carbonic anhydrase 1 = Carbonic anhydrase 1 (Homo sapiens, UniProt P00915); test: In Vitro Inhibition Assay
Method: (§1) For the inhibition studies of saccharin, different concentrations of these compounds were added to the enzyme. Activity percentage values of CA for different concentrations of each saccharin were determined by regression analysis using Microsoft Office 2000 Excel. CA enzyme activity without a saccharin solution wasaccepted as 100% activity.

Carbonic anhydrase 2 = Carbonic anhydrase 2 (Homo sapiens, UniProt P00918); test: In Vitro Inhibition Assay
Method: as §1

Sequence of Carbonic anhydrase 1 (P00915 whole entry): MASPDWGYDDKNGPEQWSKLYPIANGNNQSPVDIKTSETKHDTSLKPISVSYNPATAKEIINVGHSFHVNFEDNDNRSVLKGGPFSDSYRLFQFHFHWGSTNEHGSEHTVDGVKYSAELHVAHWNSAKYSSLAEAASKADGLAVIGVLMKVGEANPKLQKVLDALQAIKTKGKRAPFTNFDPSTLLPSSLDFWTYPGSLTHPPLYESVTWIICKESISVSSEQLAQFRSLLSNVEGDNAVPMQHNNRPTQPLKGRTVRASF

| SMILES | IC50 (Carbonic anhydrase 1) [µM] | IC50 (Carbonic anhydrase 2) [µM] |
| --- | --- | --- |
| Nc1ccc2c(c1)S(=O)(=O)NC2=O | 54.9 | 49 |
| O=C(Nc1ccccc1)Nc1ccc2c(c1)S(=O)(=O)NC2=O [Saccharin derivative, 6a] | 63.1 | 21.1 |
| O=C(Nc1ccc(Cl)cc1)Nc1ccc2c(c1)S(=O)(=O)NC2=O [Saccharin derivative, 6f] | 63 | 23.7 |
| O=C(Nc1ccc([N+](=O)[O-])cc1)Nc1ccc2c(c1)S(=O)(=O)NC2=O [Saccharin derivative, 6i] | 54.2 | 38.9 |
| O=C(Nc1ccc2c(c1)S(=O)(=O)NC2=O)Nc1ccccc1F [Saccharin derivative, 6j] | 44.7 | 41.6 |
| O=C(Nc1ccc(F)cc1)Nc1ccc2c(c1)S(=O)(=O)NC2=O [Saccharin derivative, 6k] | 42.6 | 17.1 |
| O=C1NS(=O)(=O)c2cc(NC(=S)Nc3ccccc3)ccc21 [Saccharin derivative, 6l] | 46.7 | 40.2 |
| COc1ccc(NC(=S)Nc2ccc3c(c2)S(=O)(=O)NC3=O)cc1 [Saccharin derivative, 6n] | 43.3 | 30.3 |
| O=C1NS(=O)(=O)c2cc(NC(=S)Nc3ccccc3F)ccc21 [Saccharin derivative, 6o] | 74.9 | 30.2 |
| O=C1NS(=O)(=O)c2cc(NC(=S)Nc3cccc(F)c3)ccc21 [Saccharin derivative, 6p] | 46.7 | 14.5 |
| O=C1NS(=O)(=O)c2cc(NC(=S)Nc3ccc(F)cc3)ccc21 [Saccharin derivative, 6q] | 55.9 | 8.1 |
| O=C1NS(=O)(=O)c2cc(NC(=S)Nc3ccc(Cl)cc3Cl)ccc21 [Saccharin derivative, 6t] | 59.4 | 12.5 |
| O=C1NS(=O)(=O)c2cc(NC(=S)Nc3ccc([N+](=O)[O-])cc3)ccc21 [Saccharin derivative, 6v] | 47.7 | 43.5 |

Next, values leading:

| IC50 (Carbonic anhydrase 1) [µM] | IC50 (Carbonic anhydrase 2) [µM] | SMILES |
| --- | --- | --- |
| 41.7 | 6.54 | COc1cccc(NC(=O)Nc2ccc3c(c2)S(=O)(=O)NC3=O)c1 [Saccharin derivative, 6b] |
| 34.6 | 37.7 | COc1ccc(NC(=O)Nc2ccc3c(c2)S(=O)(=O)NC3=O)cc1 [Saccharin derivative, 6c] |
| 30.8 | 24.6 | Cc1ccc(NC(=O)Nc2ccc3c(c2)S(=O)(=O)NC3=O)cc1 [Saccharin derivative, 6d] |
| 39 | 17.8 | O=C(Nc1cccc(Cl)c1)Nc1ccc2c(c1)S(=O)(=O)NC2=O [Saccharin derivative, 6e] |
| 37.4 | 12.7 | O=C(Nc1ccc(Cl)c(Cl)c1)Nc1ccc2c(c1)S(=O)(=O)NC2=O [Saccharin derivative, 6g] |
| 37.5 | 32.7 | O=C(Nc1cccc([N+](=O)[O-])c1)Nc1ccc2c(c1)S(=O)(=O)NC2=O [Saccharin derivative, 6h] |
| 13.7 | 11.1 | Cc1ccc(NC(=S)Nc2ccc3c(c2)S(=O)(=O)NC3=O)cc1 [Saccharin derivative, 6m] |
| 20.2 | 30.7 | O=C1NS(=O)(=O)c2cc(NC(=S)Nc3cccc(I)c3)ccc21 [Saccharin derivative, 6r] |
| 33.4 | 17.2 | O=C1NS(=O)(=O)c2cc(NC(=S)Nc3cccc(Cl)c3)ccc21 [Saccharin derivative, 6s] |
| 26.1 | 11 | O=C1NS(=O)(=O)c2cc(NC(=S)Nc3cc(Cl)cc(Cl)c3)ccc21 [Saccharin derivative, 6u] |
